US6329399A, “Antifungal amine derivatives and processing for producing the same” (Pola Chemical Industries, Inc., priority 1997, dated 2001)
≈ marks a conversion by molar mass, not a printed value.

Assays:
Experiment in all cases: Measurement of antimycotic activity (minimum inhibitory concentration, MIC) against dermatophyte
Assay type in all cases: cell-based
M. canis TIMM0760 = conditions: Microsporum canis, 168 h, Sabouraud's agar pH=5.9, 27° C., 1 week
Protocol: (§1) The antimycotic activity of the compounds of the invention against dermatophyte was examined.
(§2) More particularly, the test dermatophyte strains shown in Tables 9 and 10 below were cultivated in advance on a slant culture of Sabouraud's agar medium (manufactured by Nissui Seiyaku Co., Ltd.; 1.0% peptone, 4.0% glucose, 1.5% agar, pH=5.9) at 27° C. for 2 weeks to allow them to grow conidia sufficiently. Then, sterilized physiological saline containing 0.05 weight/volume % of Tween 80 was added to the culture and while rubbing the surface of the culture with a platinum loop, the conidia were separated and caused to float. Using a hemocytometer, the filtrate was adjusted with sterilized physiological saline such that the concentration of conidia was 10^6 cells/ml, which was used as a test microbe liquid.
(§3) On the other hand, PR compounds and AD compounds (test drugs) of the present invention obtained in the examples described above were taken each in an amount of 10 mg, and 1 ml of dimethyl sulfoxide was added thereto to form a stock solution, of which 500 μl was taken and 500 μl of dimethyl sulfoxide was added thereto to prepare a 2-fold dilution. The same operation was repeated to prepare 13-stages ranging from 10 to 0.0025 mg/ml (final concentration of test system 100 to 0.025 μg/ml) of diluted drug solutions. Solutions with various diluted concentrations of test drug were each dispensed in sterilized petri dish with an amount of 100 μl. Then, 10 ml of sterile-dissolved Sabouraud's agar medium (1.0% peptone, 4.0% glucose, 1.5% agar, pH=5.9) was added, well mixed and solidified. Then, 5 μl of the test microbe solution previously adjusted were added using a microplanter, respectively.
(§4) The results are shown in Table 9 for PR compounds and in Table 10 for AD compounds, respectively. In the column of Compound No. in Tables 9 and 10, "PR-" or "AD-" were omitted.

[1] = system: T. mentagrophytes TIMM1189; conditions: Trichophyton mentagrophytes, 168 h, Sabouraud's agar pH=5.9, 27° C., 1 week
Protocol: as §1, §2, §3, §4

[2] = system: T. mentagrophytes TIMM1177; conditions: Trichophyton mentagrophytes, 168 h, Sabouraud's agar pH=5.9, 27° C., 1 week
Protocol: as §1, §2, §3, §4

M. gypseum IF08231 = conditions: Nannizzia gypsea, 168 h, Sabouraud's agar pH=5.9, 27° C., 1 week
Protocol: as §1, §2, §3, §4

T. rubrum IF05808 = conditions: Trichophyton rubrum, 168 h, Sabouraud's agar pH=5.9, 27° C., 1 week
Protocol: as §1, §2, §3, §4

T. violaceum TIMM1264 = conditions: Trichophyton violaceum, 168 h, Sabouraud's agar pH=5.9, 27° C., 1 week
Protocol: as §1, §2, §3, §4

[3] = system: T. mentagrophytes IF07552; conditions: Trichophyton mentagrophytes, 168 h, Sabouraud's agar pH=5.9, 27° C., 1 week
Protocol: as §1, §2, §3, §4

T. rubrum IF09185 = conditions: Trichophyton rubrum, 168 h, Sabouraud's agar pH=5.9, 27° C., 1 week
Protocol: as §1, §2, §3, §4

[4] = system: T. mentagrophytes IF05811; conditions: Trichophyton mentagrophytes, 168 h, Sabouraud's agar pH=5.9, 27° C., 1 week
Protocol: as §1, §2, §3, §4

Compound	MIC (M. canis TIMM0760) [mg/L]	MIC [1] [mg/L]	MIC [2] [mg/L]	MIC (M. gypseum IF08231) [mg/L]	MIC (T. rubrum IF05808) [mg/L]	MIC (T. violaceum TIMM1264) [mg/L]	MIC [3] [mg/L]	MIC (T. rubrum IF09185) [mg/L]	MIC [4] [mg/L]
C=C(CN(C)Cc1ccc(C(C)(C)C)cc1)c1cccc(C#N)c1 [Compound AD-052, 3-[1-{N-(4-tert-butylbenzyl)-N-methylamino}methyl]vinylbenzonitrile]	0.39 (≈ 1.22 µM)	0.78 (≈ 2.45 µM)	0.78 (≈ 2.45 µM)	0.39 (≈ 1.22 µM)	0.39 (≈ 1.22 µM)	1.56 (≈ 4.9 µM)	0.78 (≈ 2.45 µM)	0.39 (≈ 1.22 µM)	0.39 (≈ 1.22 µM)
C=C(CN(C)C/C=C/C#CC(C)(C)C)c1cccc(Br)c1 [Compound PR-1484, Trans-N-(6,6-dimethyl-2-hepten-4-ynyl)-N-methyl-[2-(3-bromophenyl)-2-propenyl]amine]	0.1 (≈ 0.289 µM)	0.39 (≈ 1.13 µM)	0.1 (≈ 0.289 µM)	0.39 (≈ 1.13 µM)	0.1 (≈ 0.289 µM)	0.1 (≈ 0.289 µM)	0.2 (≈ 0.578 µM)	0.1 (≈ 0.289 µM)	0.1 (≈ 0.289 µM)
C=C(CN(C)C/C=C/C#CC(C)(C)C)c1ccc(O)cc1 [Compound PR-1606, Trans-N-(6,6-dimethyl-2-hepten-4-ynyl)-N-methyl-[2-(4-hydroxyphenyl)-2-propenyl]amine]	25 (≈ 88.2 µM)	50 (≈ 176 µM)	50 (≈ 176 µM)	25 (≈ 88.2 µM)	25 (≈ 88.2 µM)	50 (≈ 176 µM)	50 (≈ 176 µM)	50 (≈ 176 µM)	25 (≈ 88.2 µM)
C=C(CN(C)C/C=C/C#CC(C)(C)C)c1ccccc1N [Compound PR-1672, Trans-N-(6,6-dimethyl-2-hepten-4-ynyl)-N-methyl-[2-(2-aminophenyl)-2-propenyl]amine]	1.56 (≈ 5.52 µM)	3.12 (≈ 11 µM)	3.12 (≈ 11 µM)	3.12 (≈ 11 µM)	0.78 (≈ 2.76 µM)	3.12 (≈ 11 µM)	1.56 (≈ 5.52 µM)	1.56 (≈ 5.52 µM)	3.12 (≈ 11 µM)
CN(CC(=O)c1ccccc1O)Cc1ccc(C(C)(C)C)cc1 [Compound AD-057, 2-[N-(4-tert-butylbenzyl)-N-methylamino]-2'-hydroxyacetophenone]	6.25 (≈ 20.1 µM)	12.5 (≈ 40.1 µM)	12.5 (≈ 40.1 µM)	12.5 (≈ 40.1 µM)	3.12 (≈ 10 µM)	6.25 (≈ 20.1 µM)	12.5 (≈ 40.1 µM)	6.25 (≈ 20.1 µM)	12.5 (≈ 40.1 µM)
C=C(CN(C)Cc1ccc(C(C)(C)C)cc1)c1ccc(C)cc1C [Compound AD-046, N-(4-tert-butylbenzyl)-N-methyl-[2-(2,4-dimethylphenyl)-2-propenyl]amine]	6.25 (≈ 19.4 µM)	12.5 (≈ 38.9 µM)	12.5 (≈ 38.9 µM)	12.5 (≈ 38.9 µM)	1.56 (≈ 4.85 µM)	12.5 (≈ 38.9 µM)	6.25 (≈ 19.4 µM)	3.12 (≈ 9.7 µM)	6.25 (≈ 19.4 µM)

More lines, now with the values ahead:

MIC (M. canis TIMM0760) [mg/L]	MIC [1] [mg/L]	MIC [2] [mg/L]	MIC (M. gypseum IF08231) [mg/L]	MIC (T. rubrum IF05808) [mg/L]	MIC (T. violaceum TIMM1264) [mg/L]	MIC [3] [mg/L]	MIC (T. rubrum IF09185) [mg/L]	MIC [4] [mg/L]	Compound
0.1 (≈ 0.35 µM)	0.39 (≈ 1.37 µM)	0.39 (≈ 1.37 µM)	6.25 (≈ 21.9 µM)	0.1 (≈ 0.35 µM)	0.39 (≈ 1.37 µM)	0.39 (≈ 1.37 µM)	0.39 (≈ 1.37 µM)	0.39 (≈ 1.37 µM)	C=C(CN(C)C/C=C/C#CC(C)(C)C)c1ccccc1F [Compound PR-1491, Trans-N-(6,6-dimethyl-2-hepten-4-ynyl)-N-methyl-[2-(2-fluorophenyl)-2-propenyl]amine]
0.78 (≈ 2.3 µM)	3.12 (≈ 9.22 µM)	1.56 (≈ 4.61 µM)	3.12 (≈ 9.22 µM)	0.78 (≈ 2.3 µM)	3.12 (≈ 9.22 µM)	1.56 (≈ 4.61 µM)	0.78 (≈ 2.3 µM)	1.56 (≈ 4.61 µM)	C=C(CN(C)Cc1ccc(C(C)(C)C)cc1)c1cccc([N+](=O)[O-])c1 [Compound AD-037, N-(4-tert-butylbenzyl)-N-methyl-[2-(3-nitrophenyl)-2-propenyl]amine]
0.05 (≈ 0.165 µM)	0.1 (≈ 0.33 µM)	0.2 (≈ 0.659 µM)	0.2 (≈ 0.659 µM)	0.1 (≈ 0.33 µM)	0.2 (≈ 0.659 µM)	0.2 (≈ 0.659 µM)	0.1 (≈ 0.33 µM)	0.2 (≈ 0.659 µM)	C=C(CN(C)C/C=C/C#CC(C)(C)C)c1cc(F)cc(F)c1 [Compound PR-2159, Trans-N-(6,6-dimethyl-2-hepten-4-ynyl)-N-methyl-[2-(3,5-difluorophenyl)-2-propenyl]amine]
